Experimental data taken from US20030105360A1, “Form a of fluoxetine hydrochloride” (priority 2001, published 2003).

Type: physicochemical
Description: Using the appropriately precise DSC method set forth in Example 12 herein, wherein the analysis is conducted at a maximum rate of 1° C. per minute, multiple levels of polymorph Forms A, B, and C each are typically present in fluoxetine hydrochloride API (FIGS. 2 and 4). When such API is prepared via any one of the methods of the present invention, recrystallization, slurry, and compression, and analyzed using said DSC method, a single endotherm occurring at a temperature range from about 155° C. to about 160° C., and more preferably from about 157° C. to about 159° C., confirms the presence of Form A of fluoxetine hydrochloride (FIGS. 6 and 8 for the compression and slurry methods, respectively). […] Accordingly, the slurry method for preparing pure and essentially pure Form A is preferred, while the compression method is especially preferred.
Differential Scanning Calorimetry for fluoxetine hydrochloride. The method described in Example 11 was used, except the heating rate was changed from 10° C. per minute to a heating rate of 1° C. per minute from 145° C. to 175° C.

For `CNCCC(Oc1ccc(C(F)(F)F)cc1)c1ccccc1.Cl` (racemic) [Form A, (±)-N-methyl-3-phenyl-2-[α,α,α-trifluoro-p-tolyl) oxy] propylamine hydrochloride], the “polymorphic forms found by DSC after storage under accelerated stability conditions” value was “two additional polymorphs of fluoxetine hydrochloride, Forms D and E, were prepared” and the “polymorphic forms found by DSC thermogram (FIG. 11) after storage” value (pure Form A prepared via recrystallization method, stored at 40° C. and 75% relative humidity, within three days) was “Forms A, D, and E, which formed within three days”.
